Assay [1] concerns the target T1, PYL2 (Arabidopsis thaliana, UniProt O80992).
T1 sequence (O80992 14-188): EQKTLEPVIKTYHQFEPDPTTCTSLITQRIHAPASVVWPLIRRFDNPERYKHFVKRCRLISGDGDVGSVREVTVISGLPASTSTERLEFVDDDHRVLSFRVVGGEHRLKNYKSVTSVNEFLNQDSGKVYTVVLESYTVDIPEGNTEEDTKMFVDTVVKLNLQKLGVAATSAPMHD
T1 sequence (Q9CAJ0 172-511 partner): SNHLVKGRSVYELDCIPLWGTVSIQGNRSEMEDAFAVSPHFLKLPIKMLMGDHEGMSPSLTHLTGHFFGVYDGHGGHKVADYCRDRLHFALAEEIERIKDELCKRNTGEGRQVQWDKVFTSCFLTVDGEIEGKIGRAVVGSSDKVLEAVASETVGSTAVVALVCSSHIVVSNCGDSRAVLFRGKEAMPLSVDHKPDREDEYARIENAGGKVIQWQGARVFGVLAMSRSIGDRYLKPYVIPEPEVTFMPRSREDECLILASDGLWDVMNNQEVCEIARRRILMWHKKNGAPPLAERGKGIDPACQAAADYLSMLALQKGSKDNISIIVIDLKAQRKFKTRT
Nature of the assay: crystal structure of PYL2-ABA. It is filed as biochemical.

Assay [2] has as its target T2, PYR1(H115A) (Arabidopsis thaliana, UniProt O49686, H115A).
T2 sequence (O49686 1-191 H115A): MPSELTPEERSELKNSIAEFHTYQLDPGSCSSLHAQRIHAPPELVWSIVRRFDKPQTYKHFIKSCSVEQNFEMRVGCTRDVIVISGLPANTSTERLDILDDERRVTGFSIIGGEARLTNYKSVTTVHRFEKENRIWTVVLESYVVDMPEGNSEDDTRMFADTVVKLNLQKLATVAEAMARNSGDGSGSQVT
Nature of the assay: 1H-15N HSQC NMR with and without S-ABA. It is filed as binding.

These results are taken from publication PMC2810868 (Nature, 2009).

As to `CC1=CC(=O)CC(C)(C)C1(O)/C=C/C(C)=C\C(=O)O` (centres unmarked) [S-ABA], the IC50 in assay [1] was found to be 150 nM. In addition, the “1H-15N HSQC NMR with and without S-ABA” value in assay [2] was “ABA binding is unaltered by the H115A mutation in the PYR1 latch”.

By IC50 is commonly meant the point on the concentration scale where inhibition reaches its midpoint. Read a high IC50 as weaker potency in that assay.
